# Ends that are not written are not given here. Peptide text beside a SMILES is read from it. * marks the point of attachment. Biotin = O=C1N[C@H]2[C@H](CS[C@H]2CCCCC(=O)*)N1
# Columns and labels:
# Experiment in all cases: G' assay (10 uM PL peptide), results of TABLE 7 and TABLE 12
# Assay type in all cases: binding
# [1] = target: T1, PDZ protein (GST-PDZ fusion) (Homo sapiens, UniProt O14907); details: PDZ TIP1, PDZ Domain 1
# T1 construct: made in house; host or cells: E. coli (DH5alpha, BL21 or JM109)
# T1 sequence (O14907 1-124): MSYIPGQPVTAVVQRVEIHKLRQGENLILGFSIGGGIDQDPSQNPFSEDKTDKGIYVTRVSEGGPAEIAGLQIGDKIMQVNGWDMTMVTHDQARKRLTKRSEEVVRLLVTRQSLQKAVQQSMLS
# Method in brief: (§1)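 Biotinylated PL peptides at 10 uM (vs 20 uM in G^0 assay) bound to GST-PDZ fusions; PDZ protein at 5 ug/ml unless another concentration listed. Bound peptide read as A450 nm, classified 0–5 (0 = A450 0; 5 = A450 >4 repeated).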
# [2] = target: T2, PDZ protein (GST-PDZ fusion) (Homo sapiens, UniProt P57105); details: PDZ Outer Membrane, PDZ Domain 1
# T2 construct: made in house; host or cells: E. coli (DH5alpha, BL21 or JM109)
# T2 sequence (P57105 1-145): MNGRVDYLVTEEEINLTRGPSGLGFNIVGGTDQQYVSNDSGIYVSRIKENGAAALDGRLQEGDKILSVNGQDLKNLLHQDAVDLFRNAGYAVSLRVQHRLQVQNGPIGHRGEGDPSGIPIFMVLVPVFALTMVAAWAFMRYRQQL
# Method in brief: as §1
# [3] = target: T3, PDZ protein (GST-PDZ fusion) (Homo sapiens, UniProt Q8NI35); details: PDZ INADL
# T3 construct: made in house; host or cells: E. coli (DH5alpha, BL21 or JM109)
# T3 sequence (Q8NI35 whole entry, the tested form may be a part): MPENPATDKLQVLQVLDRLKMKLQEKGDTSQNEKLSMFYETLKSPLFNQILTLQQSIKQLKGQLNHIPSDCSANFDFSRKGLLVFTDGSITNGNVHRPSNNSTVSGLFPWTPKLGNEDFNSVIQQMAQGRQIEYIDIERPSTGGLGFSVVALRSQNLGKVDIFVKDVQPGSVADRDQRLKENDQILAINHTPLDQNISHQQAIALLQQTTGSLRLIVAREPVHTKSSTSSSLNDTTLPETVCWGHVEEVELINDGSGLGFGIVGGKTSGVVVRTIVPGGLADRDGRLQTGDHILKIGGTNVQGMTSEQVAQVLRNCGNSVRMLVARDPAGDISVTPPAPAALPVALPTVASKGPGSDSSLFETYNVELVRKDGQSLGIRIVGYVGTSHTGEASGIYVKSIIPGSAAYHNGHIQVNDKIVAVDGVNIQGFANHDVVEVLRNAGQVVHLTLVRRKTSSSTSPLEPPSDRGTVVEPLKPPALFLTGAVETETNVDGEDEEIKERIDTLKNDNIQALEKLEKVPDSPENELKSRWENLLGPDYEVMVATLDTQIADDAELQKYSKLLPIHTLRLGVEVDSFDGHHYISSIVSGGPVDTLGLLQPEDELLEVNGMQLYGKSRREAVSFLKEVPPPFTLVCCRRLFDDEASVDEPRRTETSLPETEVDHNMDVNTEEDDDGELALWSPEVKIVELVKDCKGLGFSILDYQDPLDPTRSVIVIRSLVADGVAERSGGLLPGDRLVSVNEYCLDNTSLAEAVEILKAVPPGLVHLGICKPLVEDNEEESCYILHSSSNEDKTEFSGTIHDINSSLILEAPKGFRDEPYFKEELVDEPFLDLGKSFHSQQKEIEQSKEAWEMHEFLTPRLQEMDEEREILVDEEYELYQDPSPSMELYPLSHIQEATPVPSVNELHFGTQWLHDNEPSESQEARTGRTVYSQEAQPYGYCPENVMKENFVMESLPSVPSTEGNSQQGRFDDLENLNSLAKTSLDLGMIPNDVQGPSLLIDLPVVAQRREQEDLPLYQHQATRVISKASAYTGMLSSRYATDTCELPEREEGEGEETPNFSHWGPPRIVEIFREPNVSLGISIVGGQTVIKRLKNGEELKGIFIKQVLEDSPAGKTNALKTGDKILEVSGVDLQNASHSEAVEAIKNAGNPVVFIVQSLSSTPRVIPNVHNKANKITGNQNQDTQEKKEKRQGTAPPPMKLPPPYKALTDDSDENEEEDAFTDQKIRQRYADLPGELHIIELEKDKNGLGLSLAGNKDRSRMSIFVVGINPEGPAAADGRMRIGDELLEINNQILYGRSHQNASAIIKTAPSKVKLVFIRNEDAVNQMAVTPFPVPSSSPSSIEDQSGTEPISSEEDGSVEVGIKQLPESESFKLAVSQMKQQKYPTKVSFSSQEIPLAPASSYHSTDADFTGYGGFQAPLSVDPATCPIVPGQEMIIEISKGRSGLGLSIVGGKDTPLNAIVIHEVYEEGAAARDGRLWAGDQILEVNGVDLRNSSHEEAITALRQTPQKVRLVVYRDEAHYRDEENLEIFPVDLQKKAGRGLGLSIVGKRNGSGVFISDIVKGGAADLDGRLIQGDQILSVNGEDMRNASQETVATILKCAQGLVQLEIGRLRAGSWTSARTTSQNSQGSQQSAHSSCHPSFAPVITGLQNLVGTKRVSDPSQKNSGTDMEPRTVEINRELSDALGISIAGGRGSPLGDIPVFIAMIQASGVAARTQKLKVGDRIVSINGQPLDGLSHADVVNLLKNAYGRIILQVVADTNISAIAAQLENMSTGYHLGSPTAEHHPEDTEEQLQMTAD
# Method in brief: as §1
# [4] = target: T4, PDZ protein (GST-PDZ fusion) (Homo sapiens, UniProt P78352)
# T4 construct: made in house; host or cells: E. coli (DH5alpha, BL21 or JM109)
# T4 sequence (P78352 whole entry, the tested form may be a part): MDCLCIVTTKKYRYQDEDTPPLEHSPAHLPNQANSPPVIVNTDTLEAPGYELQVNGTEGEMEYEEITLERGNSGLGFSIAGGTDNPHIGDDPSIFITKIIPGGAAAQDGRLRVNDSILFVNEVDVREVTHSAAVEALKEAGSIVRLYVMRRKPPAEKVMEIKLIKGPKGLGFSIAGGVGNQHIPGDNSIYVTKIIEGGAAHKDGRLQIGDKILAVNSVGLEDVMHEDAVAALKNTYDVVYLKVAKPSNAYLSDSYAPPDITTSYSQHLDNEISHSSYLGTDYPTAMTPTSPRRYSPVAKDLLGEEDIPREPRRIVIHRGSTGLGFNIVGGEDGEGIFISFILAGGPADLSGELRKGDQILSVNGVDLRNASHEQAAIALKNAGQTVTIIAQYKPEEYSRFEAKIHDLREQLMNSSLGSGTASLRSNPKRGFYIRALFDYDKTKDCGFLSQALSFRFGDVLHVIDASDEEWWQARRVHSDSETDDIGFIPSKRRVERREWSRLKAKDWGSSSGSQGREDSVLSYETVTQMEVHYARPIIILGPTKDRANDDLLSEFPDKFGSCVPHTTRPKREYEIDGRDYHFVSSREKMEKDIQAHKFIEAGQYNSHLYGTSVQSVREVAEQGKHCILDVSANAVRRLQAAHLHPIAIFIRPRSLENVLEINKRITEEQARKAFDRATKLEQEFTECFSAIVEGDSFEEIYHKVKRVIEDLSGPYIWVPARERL
# Method in brief: as §1
# [5] = target: T5, PDZ protein (GST-PDZ fusion) (Homo sapiens, UniProt Q12959)
# T5 construct: made in house; host or cells: E. coli (DH5alpha, BL21 or JM109)
# T5 sequence (Q12959 whole entry, the tested form may be a part): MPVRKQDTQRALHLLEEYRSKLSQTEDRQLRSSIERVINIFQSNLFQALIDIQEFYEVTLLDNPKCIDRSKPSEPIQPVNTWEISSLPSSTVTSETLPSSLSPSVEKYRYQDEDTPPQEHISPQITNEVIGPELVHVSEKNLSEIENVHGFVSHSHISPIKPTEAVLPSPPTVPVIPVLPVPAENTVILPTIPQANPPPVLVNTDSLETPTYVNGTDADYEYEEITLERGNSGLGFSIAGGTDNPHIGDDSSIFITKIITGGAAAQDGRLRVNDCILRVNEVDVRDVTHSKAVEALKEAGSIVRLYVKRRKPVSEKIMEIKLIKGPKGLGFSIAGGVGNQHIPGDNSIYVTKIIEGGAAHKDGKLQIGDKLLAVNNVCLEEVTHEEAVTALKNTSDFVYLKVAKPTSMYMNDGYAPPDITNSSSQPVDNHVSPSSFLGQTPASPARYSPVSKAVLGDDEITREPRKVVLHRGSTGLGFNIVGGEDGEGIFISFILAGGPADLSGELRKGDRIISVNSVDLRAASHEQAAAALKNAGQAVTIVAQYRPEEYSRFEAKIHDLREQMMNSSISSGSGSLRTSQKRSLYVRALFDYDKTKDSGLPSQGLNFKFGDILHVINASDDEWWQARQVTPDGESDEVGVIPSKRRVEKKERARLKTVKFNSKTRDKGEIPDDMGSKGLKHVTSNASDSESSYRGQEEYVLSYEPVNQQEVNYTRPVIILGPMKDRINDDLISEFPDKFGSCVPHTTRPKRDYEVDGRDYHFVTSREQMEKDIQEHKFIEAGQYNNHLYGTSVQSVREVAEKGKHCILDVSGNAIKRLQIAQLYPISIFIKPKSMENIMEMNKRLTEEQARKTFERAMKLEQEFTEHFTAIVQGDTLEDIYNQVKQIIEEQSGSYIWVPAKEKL
# Method in brief: as §1
# [6] = target: T6, PDZ protein (GST-PDZ fusion) (Homo sapiens, UniProt Q15700)
# T6 construct: made in house; host or cells: E. coli (DH5alpha, BL21 or JM109)
# T6 sequence (Q15700 whole entry, the tested form may be a part): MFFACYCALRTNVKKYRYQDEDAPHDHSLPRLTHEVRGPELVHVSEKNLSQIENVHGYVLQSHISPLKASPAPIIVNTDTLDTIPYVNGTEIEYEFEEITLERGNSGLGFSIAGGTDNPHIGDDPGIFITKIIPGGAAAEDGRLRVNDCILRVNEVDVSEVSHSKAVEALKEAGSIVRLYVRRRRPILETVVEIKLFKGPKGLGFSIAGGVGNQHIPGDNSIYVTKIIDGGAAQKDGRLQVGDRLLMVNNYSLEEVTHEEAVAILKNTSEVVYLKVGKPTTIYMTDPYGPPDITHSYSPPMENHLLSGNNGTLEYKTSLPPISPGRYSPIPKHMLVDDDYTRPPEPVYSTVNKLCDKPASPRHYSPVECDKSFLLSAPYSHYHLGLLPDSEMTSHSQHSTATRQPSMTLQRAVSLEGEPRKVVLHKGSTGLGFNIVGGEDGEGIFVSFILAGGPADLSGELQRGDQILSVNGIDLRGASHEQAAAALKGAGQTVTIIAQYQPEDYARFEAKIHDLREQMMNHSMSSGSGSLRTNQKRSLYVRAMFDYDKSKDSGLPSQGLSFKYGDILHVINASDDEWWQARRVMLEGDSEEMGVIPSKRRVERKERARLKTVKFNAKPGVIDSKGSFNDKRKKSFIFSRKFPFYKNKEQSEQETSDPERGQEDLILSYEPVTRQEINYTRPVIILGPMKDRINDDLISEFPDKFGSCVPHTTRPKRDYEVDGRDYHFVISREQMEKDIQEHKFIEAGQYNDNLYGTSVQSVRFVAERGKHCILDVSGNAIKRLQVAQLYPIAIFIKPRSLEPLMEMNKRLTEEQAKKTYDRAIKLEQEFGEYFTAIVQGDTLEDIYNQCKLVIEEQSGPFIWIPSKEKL
# Method in brief: as §1
# [7] = target: T7, PDZ protein (GST-PDZ fusion) (Homo sapiens, UniProt Q92796); details: PDZ NeDLG
# T7 construct: made in house; host or cells: E. coli (DH5alpha, BL21 or JM109)
# T7 sequence (Q92796 1-817): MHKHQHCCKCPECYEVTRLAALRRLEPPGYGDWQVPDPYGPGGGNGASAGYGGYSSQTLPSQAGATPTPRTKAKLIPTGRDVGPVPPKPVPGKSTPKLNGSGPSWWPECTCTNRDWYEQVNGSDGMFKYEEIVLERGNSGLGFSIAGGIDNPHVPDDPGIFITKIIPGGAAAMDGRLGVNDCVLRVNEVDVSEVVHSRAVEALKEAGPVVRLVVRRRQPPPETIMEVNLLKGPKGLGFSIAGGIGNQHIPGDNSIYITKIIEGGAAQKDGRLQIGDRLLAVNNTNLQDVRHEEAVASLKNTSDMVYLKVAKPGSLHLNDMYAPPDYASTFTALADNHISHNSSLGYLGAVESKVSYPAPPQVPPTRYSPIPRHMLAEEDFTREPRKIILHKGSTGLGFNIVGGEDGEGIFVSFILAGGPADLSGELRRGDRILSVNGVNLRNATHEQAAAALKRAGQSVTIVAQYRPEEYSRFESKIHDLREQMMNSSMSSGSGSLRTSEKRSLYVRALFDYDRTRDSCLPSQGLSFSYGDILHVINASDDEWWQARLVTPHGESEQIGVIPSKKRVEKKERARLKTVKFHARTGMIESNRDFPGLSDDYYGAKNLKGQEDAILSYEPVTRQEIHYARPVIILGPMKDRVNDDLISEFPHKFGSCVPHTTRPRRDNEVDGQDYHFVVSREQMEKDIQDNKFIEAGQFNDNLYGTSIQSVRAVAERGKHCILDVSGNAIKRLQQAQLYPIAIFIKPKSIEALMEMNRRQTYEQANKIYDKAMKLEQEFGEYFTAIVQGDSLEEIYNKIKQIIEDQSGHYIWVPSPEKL
# Method in brief: as §1
# [8] = target: T8, PDZ protein (GST-PDZ fusion) (Homo sapiens, UniProt O15018)
# T8 construct: made in house; host or cells: E. coli (DH5alpha, BL21 or JM109)
# Method in brief: as §1
Classification [1],Classification [2],Classification ([3]; PDZ Domain 8),"Classification ([4]; PDZ PSD95, PDZ Domain 1, 2, 3)","Classification ([5]; PDZ DLG1, PDZ Domain 1, 2)","Classification ([7]; PDZ Domain 1, 2)","Classification ([8]; PDZ AIPC, PDZ Domain 1)",Compound,"Classification ([5]; PDZ DLG1, PDZ Domain 2)",other results
1 (A450 nm 0-1),–,1 (A450 nm 0-1),2 (A450 nm 1-2),2 (A450 nm 1-2),1 (A450 nm 0-1),–,CC(C)C[C@H](NC(=O)CNC(=O)[C@@H](NC(=O)[C@H](CO)NC(=O)[C@H](CC(N)=O)NC(=O)[C@H](Cc1ccccc1)NC(=O)CNC(=O)[C@H](C)NC(=O)[C@H](C)NC(=O)[C@H](Cc1ccccc1)NC(=O)[C@@H](NC(=O)CCCC[C@@H]1SC[C@@H]2NC(=O)N[C@@H]21)[C@@H](C)O)[C@@H](C)O)C(=O)N1CCC[C@H]1C(=O)N[C@@H](Cc1c[nH]cn1)C(=O)N[C@@H](CO)C(=O)N[C@H](C(=O)N[C@H](C(=O)N[C@@H](CCCNC(=N)N)C(=O)N[C@H](C(=O)O)C(C)C)[C@@H](C)O)[C@@H](C)O [Neuroligin] (Biotin-TFAAGFNSTGLPHSTTRV-OH; C-terminus assumed),–,Classification ([7]; PDZ Domain 3): 1 (A450 nm 0-1)
5 (A450 nm of 4 more than 2× repeated),1 (A450 nm 0-1),–,–,1 (A450 nm 0-1),–,2 (A450 nm 1-2),CC(C)C[C@H](NC(=O)[C@H](CC(=O)O)NC(=O)[C@H](CO)NC(=O)[C@H](CCC(=O)O)NC(=O)CNC(=O)[C@H](Cc1ccc(O)cc1)NC(=O)[C@H](CC(C)C)NC(=O)[C@H](C)NC(=O)[C@H](CO)NC(=O)[C@H](CO)NC(=O)[C@H](Cc1ccccc1)NC(=O)[C@H](C)NC(=O)[C@H](C)NC(=O)[C@H](Cc1ccc(O)cc1)NC(=O)[C@H](CC(=O)O)NC(=O)[C@H](CC(C)C)NC(=O)[C@H](C)NC(=O)CNC(=O)[C@@H]1CCCN1C(=O)[C@@H](NC(=O)CCCC[C@@H]1SC[C@@H]2NC(=O)N[C@@H]21)C(C)C)C(=O)O [a-actinin 2] (Biotin-VPGALDYAAFSSALYGESDL-OH; C-terminus assumed),1 (A450 nm 0-1),Classification ([3]; PDZ Domain 3): 1 (A450 nm 0-1)
1 (A450 nm 0-1),1 (A450 nm 0-1),3 (A450 nm 2-3),–,–,–,5 (A450 nm of 4 more than 2× repeated),ELLQFCRTPNPALKNGQYWV (Biotin-ELLQFCRTPNPALKNGQYWV),–,"Classification ([8]; PDZ KIAA0300, PDZ Domain 1): 2 (A450 nm 1-2); Classification ([3]; PDZ Domain 3): 3 (A450 nm 2-3); Classification ([3]; PDZ Domain 5): 5 (A450 nm of 4 more than 2× repeated)"
–,–,–,2 (A450 nm 1-2),2 (A450 nm 1-2),2 (A450 nm 1-2),2 (A450 nm 1-2),GGGGGSGGGGGSGIESVKI [GLUR2 (glutamate receptor 2-modified)],1 (A450 nm 0-1),"Classification ([6]; PDZ DLG2, PDZ Domain 2): 1 (A450 nm 0-1)"
–,1 (A450 nm 0-1),1 (A450 nm 0-1),–,–,–,–,PPATPSPRLALPAHHNATRL (Biotin-PPATPSPRLALPAHHNATRL) [Na+/Pi cotransporter 2],–,–
5 (A450 nm of 4 more than 2× repeated),–,1 (A450 nm 0-1),3 (A450 nm 2-3),3 (A450 nm 2-3),2 (A450 nm 1-2),–,RNIEEVYVGGKQVVPFSSSV (Biotin-RNIEEVYVGGKQVVPFSSSV) [Nedasin (s-form)],–,–

# The next lines start with the compound.
Compound,Classification [1],Classification [2],Classification ([3]; PDZ Domain 8),"Classification ([4]; PDZ PSD95, PDZ Domain 1, 2, 3)","Classification ([5]; PDZ DLG1, PDZ Domain 1, 2)","Classification ([7]; PDZ Domain 1, 2)","Classification ([8]; PDZ AIPC, PDZ Domain 1)","Classification ([5]; PDZ DLG1, PDZ Domain 2)",other results
CC[C@H](C)[C@H](NC(=O)[C@H](CC(=O)O)NC(=O)[C@H](CCC(=O)O)NC(=O)[C@H](CCCNC(=N)N)NC(=O)[C@@H](NC(=O)CCCC[C@@H]1SC[C@@H]2NC(=O)N[C@@H]21)[C@@H](C)O)C(=O)N[C@@H](Cc1ccc(O)cc1)C(=O)N[C@H](C(=O)N[C@@H](CC(N)=O)C(=O)N[C@@H](Cc1ccc(O)cc1)C(=O)N1CCC[C@H]1C(=O)N[C@H](C(=O)N[C@@H](Cc1ccccc1)C(=O)N[C@@H](CO)C(=O)N[C@@H](CCCNC(=N)N)C(=O)N[C@@H](CCCNC(=N)N)C(=O)N1CCC[C@H]1C(=O)N[C@@H](CCCCN)C(=O)N[C@H](C(=O)N[C@@H](CCCNC(=N)N)C(=O)N[C@H](C(=O)O)C(C)C)[C@@H](C)O)[C@@H](C)O)C(C)C [DNAM-1] (Biotin-TREDIYVNYPTFSRRPKTRV-OH; C-terminus assumed),1 (A450 nm 0-1),1 (A450 nm 0-1),5 (A450 nm of 4 more than 2× repeated),–,–,–,–,–,–
CC[C@H](C)[C@H](NC(=O)[C@H](CO)NC(=O)[C@@H](NC(=O)[C@H](Cc1ccccc1)NC(=O)[C@H](CO)NC(=O)CCCC[C@@H]1SC[C@@H]2NC(=O)N[C@@H]21)[C@@H](C)O)C(=O)N[C@@H](CC(C)C)C(=O)N[C@H](C(=O)N[C@@H](CS)C(=O)N[C@@H](Cc1c[nH]cn1)C(=O)N[C@@H](CCC(N)=O)C(=O)N[C@@H](CCCNC(=N)N)C(=O)N[C@@H](CCCNC(=N)N)C(=O)N[C@H](C(=O)N[C@@H](CCC(N)=O)C(=O)N[C@@H](CCCNC(=N)N)C(=O)N[C@@H](CCCCN)C(=O)N[C@@H](CCC(=O)O)C(=O)N[C@H](C(=O)N[C@H](C(=O)N[C@@H](C)C(=O)O)C(C)C)[C@@H](C)O)[C@@H](C)O)[C@@H](C)O [GluR5-2 (rat)],–,–,–,5 (A450 nm of 4 more than 2× repeated),5 (A450 nm of 4 more than 2× repeated),5 (A450 nm of 4 more than 2× repeated),–,2 (A450 nm 1-2),"Classification ([4]; PDZ PSD95, PDZ Domain 1): 3 (A450 nm 2-3); Classification ([4]; PDZ PSD95, PDZ Domain 3): 5 (A450 nm of 4 more than 2× repeated); Classification ([5]; PDZ DLG1, PDZ Domain 1): 2 (A450 nm 1-2); Classification ([5]; PDZ DLG1, PDZ Domain 3): 1 (A450 nm 0-1); Classification ([6]; PDZ DLG2, PDZ Domain 1): 1 (A450 nm 0-1); Classification ([6]; PDZ DLG2, PDZ Domain 2): 1 (A450 nm 0-1); Classification ([7]; PDZ Domain 2): 1 (A450 nm 0-1); Classification ([7]; PDZ Domain 3): 2 (A450 nm 1-2)"
CC[C@H](C)[C@H](NC(=O)[C@H](CCC(N)=O)NC(=O)[C@@H](NC(=O)[C@H](Cc1c[nH]cn1)NC(=O)[C@H](CCC(N)=O)NC(=O)[C@H](CC(=O)O)NC(=O)[C@H](CCC(=O)O)NC(=O)[C@H](CC(=O)O)NC(=O)[C@H](Cc1ccccc1)NC(=O)[C@@H]1CCCN1C(=O)[C@H](CCC(=O)O)NC(=O)[C@H](CC(N)=O)NC(=O)[C@H](CCC(=O)O)NC(=O)[C@@H]1CCCN1C(=O)[C@H](CC(=O)O)NC(=O)[C@H](CO)NC(=O)[C@H](CC(=O)O)NC(=O)CCCC[C@@H]1SC[C@@H]2NC(=O)N[C@@H]21)[C@@H](C)O)C(=O)N[C@H](C(=O)N[C@@H](CCCCN)C(=O)N[C@H](C(=O)O)C(C)C)[C@@H](C)O [PTEN],2 (A450 nm 1-2),–,1 (A450 nm 0-1),–,–,–,1 (A450 nm 0-1),–,–
ISGTPTSTMVHGMTSSSSVV (Biotin-ISGTPTSTMVHGMTSSSSVV) [Clasp-2],–,1 (A450 nm 0-1),1 (A450 nm 0-1),–,–,–,1 (A450 nm 0-1),1 (A450 nm 0-1),"Classification ([4]; PDZ PSD95, PDZ Domain 1): 1 (A450 nm 0-1); Classification ([5]; PDZ DLG1, PDZ Domain 1): 1 (A450 nm 0-1); Classification ([7]; PDZ Domain 2): 1 (A450 nm 0-1)"
